Test results published in paper PMC6770581, “New Thalidomide-Resembling Dicarboximides Target ABC50 Protein and Show Antileukemic and Immunomodulatory Activities” (Biomolecules, 2019).

Assays:
MOLT-4 cells = assay: MTT cytotoxicity assay, MOLT-4; assay type: cell-based; conditions: Homo sapiens, 48 h, mean ± SD
Procedure: Human umbilical vein endothelial cells (purchased from Life Technologies, Carlsbad, CA, USA) were cultured according to the manufacturer’s instructions in Medium 200 supplemented with Low Serum Growth Supplement. 1 × 10^4 cells were seeded on each well on a 96-well plate (Nunc, Roskilde, Denmark). The HeLa (human cervix carcinoma, cat. #93021013), CFPAC (human pancreatic adenocarcinoma, cat. #91112501), K562 (chronic myelogenous leukemia, cat. #89121407), HL-60 (acute myelogenous leukemia, cat. #98070106), and MOLT-4 (Human acute T lymphoblastic leukemia, cat. #85011413) cells were purchased from European Collection of Authenticated Cell Cultures (ECACC). They were cultured in an RPMI 1640 medium supplemented with antibiotics (streptomycin, penicillin) and 10% fetal calf serum (20% for HL60), in a 5% CO2-95% air atmosphere. 7 × 10^3 cells were seeded on each well on a 96-well plate (Nunc). 24 hours later the cells were exposed to the test compounds. The aliquots of stock solutions of the test compounds (freshly prepared in DMSO) were added to the cell cultures to yield final concentrations of 1, 10^−1, 10^−2, 10^−3, 10^−4, and 10^−5 mM. The concentration of DMSO in the cell culture medium was 1%. The IC50 value (the concentration of a test compound required to reduce the cell survival fraction to 50% of the control) was calculated from a dose-response curve and used as a measure of cellular sensitivity to a given treatment. The IC50 values are given as means (± standard deviation (SD)) from 2 independent experiments with 4 technical replicates. The cytotoxicity of all compounds was determined by the MTT (3-(4,5-dimethylthiazol-2-yl)-2,5-diphenyltetrazolium bromide) assay (Sigma, St. Louis, MO, USA). Briefly, after 24 h or 48 h of incubation with a given compound, the cells were treated with the MTT reagent and incubation was continued for 2 h. MTT-formazan crystals were dissolved in 20% SDS and 50% DMF at pH 4.7 and VIS light absorption was measured at 570 and 650 nm on a microplate reader FLUOstar Omega (BMG Labtech, Offenburg, Germany). As a control (100% viability), cells grown in the presence of 1% DMSO were used.

caspases 8/9 [1] = assay: Caspase-Glo 8 and 9 luminescent activity assay in K562 cells; assay type: cell-based, human; conditions: K562, 5× IC50, 6 h, control 1% DMSO = 1.0
Procedure: (§1) Louis, MO). The induction of cell apoptosis was analyzed by Apo-ONE® Homogeneous Caspase-3/7 Assay (Promega, Madison, WI, USA). […] The fluorescence in each well was measured in triplicate (excitation at 485 nm, emission measured at 520 nm) using a microplate reader FLUOStar Omega (BMG-Labtech, Offenburg, Germany). For normalization of the data, the caspase activity in the control cells (exposed to 1% DMSO) was taken as 1.0. […] Luminescence was measured (in triplicate) using a microplate reader FLUOStar Omega. For normalization of the data, the caspase activity in the control cells (exposed to 1% DMSO) was taken as 1.0.

caspases 8/9 [2] = assay: Caspase-Glo 8 and 9 luminescent activity assay in MOLT-4 cells; assay type: cell-based, human; conditions: MOLT-4, 5× IC50, 3 h, control 1% DMSO = 1.0
Procedure: as §1

IKZF1 and IKZF3 = IKZF1 and IKZF3 level by immunoblotting in K562 cells; assay type: cell-based, human; conditions: K562, 48 h, 3 (1 µM), 5 (1 µM), 6 (1 µM)
Procedure: K562 or MOLT4 cells were seeded on 6-well plate (2 × 10^6 cells/well) in a RPMI 1640 medium containing 10% FBS. MOLT4 cells were exposed to 1% DMSO (vehicle control), test compounds 6 (2 µM), 3 (5 µM), 5 (10 µM). Similarly, K562 cells were exposed to 1% DMSO, test compounds 6 (1 µM), 3 (1 µM), 5 (1 µM) for 48 h. Cells treated with 100 µM thalidomide or 10 µM lenalidomide served as positive controls. After incubation, cells were centrifuged (600 rpm, 6 min, 24 °C), washed once with PBS and lysed in 20 mM Tris (pH 7.2) containing 1% Triton X-100 supplemented with Complete® protease inhibitors cocktail (Roche). The levels of IKZF1 and IKZF3 were assessed by immunoblotting (IB).
Cells were lysed in TBS buffer containing 1% Triton X-100 and Complete® protease inhibitor cocktail (Roche) for 15 min on ice with occasional vortexing. Insoluble material was centrifuged (12,000 rpm, 15 min, 4 °C) and supernatants were collected. Total protein concentration was measured with DC Protein Assay (Bio-Rad, Hercules, CA, USA). Cell lysates containing 30 µg of total protein were mixed with Laemli buffer supplemented with SDS and β-mercaptoethanol, denatured (10 min, 95 °C) and subjected to sodium dodecyl sulfate polyacrylamide gel electrophoresis (SDS-PAGE) electrophoresis (4% stacking and 10% resolving gels). Resolved proteins were electrotransferred (semi-dry, 90 min, 1.5 mA/cm^2) to a 0.45 µm nitrocellulose membrane (Thermo Scientific, Waltham, MA, USA). Membranes were blocked for 2 hours in TBST buffer (20 mM Tris-HCl pH 7.5, 0.9% NaCl, 0.1% Tween 20) containing 5% BSA (BioShop, Burlington, ON, Canada) and probed with primary antibodies (overnight at 4 °C) diluted in TBST buffer with 0.5% BSA. Tubulin served as a loading control for IB experiments. Anti IKZF3 (rabbit monoclonal, dilution 1:500), anti IKZF1 (rabbit polyclonal, dilution 1:500) were from Abcam. Anti IRF4 (rabbit polyclonal, dilution 1:500) were from Cell Signaling Technology. […] Protein bands intensities were analysed using Image Quant (version 5.0, GE Healthcare Life Sciences, Pittsburgh, PA, USA).

HL-60 cells = conditions: 48 h, MTT, mean ± SD; cited from earlier work

Row | SMILES | IC50 (MOLT-4 cells) [µM] | increase of activity of caspases 8/9 compared to the control (caspases 8/9 [1]) | activation of caspases 8/9 compared to the control (caspases 8/9 [2]) | level of IKZF1 and IKZF3 (immunoblotting) (IKZF1 and IKZF3) | IC50 (HL-60 cells) [µM]
1 | CCC12C(=O)C(CC)(C(c3ccccc3)=C1c1ccccc1)C1C(=O)N(CCN3CCCCC3)C(=O)C12 (stereo not shown) [Compound 3] | 9 ± 0.6 | more than 2 fold | more than 10 fold | modest reduction | > 100
2 | CCC12C(=O)C(CC)(C(c3ccccc3)=C1c1ccccc1)C1C(=O)N(CC(O)CNC(C)C)C(=O)C12 (stereo not shown) [Compound 5] | 20 ± 2.3 | – | – | significant diminution | 2 ± 0.05
3 | CN(C)CCN1C(=O)C2C(C1=O)C1(c3ccccc3)CC2(c2ccccc2)C(c2ccccc2)=C1c1ccccc1 (stereo not shown) [Compound 6] | 4 ± 0.2 | more than 2 fold | more than 10 fold | significant diminution | 5 ± 0.24
